This passage reports IC50 and Emax results from patent US20260091026A1, “METHODS OF TREATING INFLAMMATORY DISEASES” (INTERLINE THERAPEUTICS, INC., priority 2023, published 2026).

SMILES strings stand for the structures.

The subject of test [1] is THP1-Dual cells, NF-κB pathway (SEAP). The experiment in a line: THP-1 Dual cell SEAP assay (L18-MDP stimulated). The class given is cell-based. The note with it: Homo sapiens, 10 ng/mL L18-MDP, 20-24 h, SEAP readout, read-out: IFNγ THP1 IC50. The method, then:
THP1-Dual™ cells (InvivoGen Cat #thpd-nfis) allow simultaneous assessment of the NF-κB pathway, by monitoring the activity of secreted embryonic alkaline phosphatase (SEAP) as well as the IRF pathway, by assessing the activity of a secreted luciferase (Lucia). Cells were cultured according to manufacturers' recommendations. For the assay, cell concentration was adjusted to 7.14×10^5 cells/mL in assay media (RPMI 1640, 2 mM L-Glutamine, 25 mM HEPES, 10% fetal bovine serum (heat-inactivated for 30 min at 56° C.), Pen-Strep (100 U/mL)) and 35 μL of cell suspension (˜25,000 cells) per well were added to a flat bottom 384-well plate (white opaque). Plate was centrifuged at 300 g for 2 min, compounds were added in serial dilution series according to the plate layout (volumes ˜500 nL-0.0152 nL) and plate was incubated at 37° C. in 5% CO2 for 30 min. Using assay media, a L18-MDP stock solution, that results in a final concentration of 10 ng/mL L18-MDP in each well when adding 15 μL to each well, was prepared. 15 μL of L18-MDP stock solution was added to each well, while 15 μL of assay media was added to the negative control wells. Plates were subsequently incubated at 37° C. in 5% CO2 overnight (20-24 h).
For the SEAP assay: without disturbing the cells at the bottom of the well, 15 μL supernatant was transferred to a clear 384-well flat bottom plate and 35 μL QUANTI-Blue Solution per well was added. Following a 2 h incubation at 37° C., the optical density (OD) was measured at 620-655 nm using a microplate reader (PheraStar FS microplate reader with protocol for OD 620-655 nm).
Values of media-only wells were subtracted and % inhibition for each compound concentration relative to the DMSO/L18-MDP-treated controls was calculated. Inhibition values+/−SD were fitted by non-linear regression using Prism software (GraphPad PRISM Software) to calculate IC50 values.

Another test has as its target T1, RIPK2 (KD)/XIAP (BIR2) (Homo sapiens, UniProt O43353).
T1 construct: made in house; host or cells: baculovirus-infected Sf9 cells
Nature of the test: RIPK2-XIAP binding competition PPI assay (TR-FRET). The note with it: for Emax: 50 nM of GSK583 = -100% activity, read-out: PPI Amax; for IC50: GST-RIPK2 / His-XIAP (BIR2)-avi, 120 min at 23° C. From the text:
The ability of selected compounds of Formula (I) to inhibit the binding of an His-XIAP (BIR2)-avi fusion protein to a GST-RIPK2 fusion protein was quantified employing the TR-FRET-based competition assay as described in the following paragraphs.
Recombinant fusion protein of N-terminal Glutathione-S-Transferase (GST) and a fragment of human RIPK2 (amino acids 1-310 of accession number 043353), expressed in baculovirus infected Sf9 cells, purified via glutathione affinity chromatography, was used as GST-RIPK2 fusion protein. Recombinant fusion protein of N-terminal 6xHistidine (His), a fragment of human XIAP (amino acids 152-231 of accession number P98170), and C-terminal avi tag, expressed in baculovirus infected Sf9 cells, purified via Nickel NTA affinity chromatography, was used as the His-XIAP (BIR2)-avi fusion protein.
For the assay, a working solution of 1 nM GST-RIPK2, 25 nM His-XIAP (BIR2)-avi, 6 nM Anti-His-XL665 […] (Revvity Catalogue No. 61HISXLB), and 0.5 nM Anti-GST-Tb(Revvity Catalogue No. 61GSTTLB) in 25 mM Tris-HCl 7.5, 0.5 mM ethylene glycol-bis(2-aminoethylether)-N,N,N′,N′-tetraacetic acid (EGTA), 10 mM magnesium chloride (MgCl2), 2.5 mM dithiothreitol (DTT), 0.01% (w/v) bovine serum albumin (BSA), 0.005% (w/v) Pluronic F-127 (Sigma), 0.5 mM sodium ortho-vanadate, 5 mM-Glycerophosphate disodium salt hydrate (BGP) was prepared. 50 nL of a 100-fold concentrated solution of each test compound in DMSO was dispensed via acoustic dispensing into a white low volume 384-well microtiter plate (Perkin Elmer Catalogue No. 6008280). Subsequently, 5 μL of the assay working solution were added.
The resulting mixture was incubated 120 min at 23° C. Subsequently, the amount of complex formed by the GST-RIPK2, XIAP (BIR2)-avi, Anti-His-XL665, and Anti-GST-Tb was evaluated by measurement of the resonance energy transfer from the Tb-cryptate to the XL665. Therefore, the fluorescence emissions at 520 nm and 665 nm after excitation at 337 nm were measured in a TR-FRET reader, e.g. a Pherastar FS(BMG Labtechnologies, Offenburg, Germany) or an Envision (PerkinElmer). The ratio of the emissions at 665 nm and at 520 nm was taken as the measure of the amount of the complex. The data were normalized (assay reaction without inhibitor=0% activity, 50 nM of GSK583=−100% activity).
A general note: In TR-FRET formats the signal depends on donor and acceptor labels being close together.

T1 sequence (O43353 1-310): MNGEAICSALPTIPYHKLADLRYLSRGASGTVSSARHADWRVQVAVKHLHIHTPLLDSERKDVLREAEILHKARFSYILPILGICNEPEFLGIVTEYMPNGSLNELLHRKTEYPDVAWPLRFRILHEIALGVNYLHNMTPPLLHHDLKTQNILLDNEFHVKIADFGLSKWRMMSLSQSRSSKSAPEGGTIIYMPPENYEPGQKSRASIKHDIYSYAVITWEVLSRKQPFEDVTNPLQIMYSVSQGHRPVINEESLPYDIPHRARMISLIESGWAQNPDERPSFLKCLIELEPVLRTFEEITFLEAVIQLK

One may read the IC50 as the point on the concentration scale where inhibition reaches its midpoint. With `COc1cc2ncc(-c3cc(C(=O)Nc4ccccc4)n(C)n3)n2cc1S(=O)(=O)C(C)(C)C` [Example 7, 3-(6-(tert-butylsulfonyl)-7-methoxyimidazo[1,2-a]pyridin-3-yl)-1-methyl-N-phenyl-1H-pyrazole-5-carboxamide], in test [1], the IC50 is > 2500 nM. Moreover, on RIPK2 (KD)/XIAP (BIR2), the Emax was ≥ 80% and the half-inhibitory concentration (IC50) is > 1000 nM.
For the compound `COc1cc2ncc(-c3cc(C(=O)NCc4ncccc4Cl)n(C)n3)n2cc1S(=O)(=O)C(C)(C)C` [Example 71, 3-(6-(tert-butylsulfonyl)-7-methoxyimidazo[1,2-a]pyridin-3-yl)-N-((3-chloropyridin-2-yl)methyl)-1-methyl-1H-pyrazole-5-carboxamide], the figures for the IC50 (in test [1]; at RIPK2 (KD)/XIAP (BIR2)) were 500 to 2500 nM and 10 to 100 nM, respectively. Further, at RIPK2 (KD)/XIAP (BIR2), the Emax is ≥ 80%.
For `COc1cc2ncc(-c3cc(C(=O)NCc4ccc(F)cn4)n(C)n3)n2cc1S(=O)(=O)C(C)(C)C` [Example 46, 3-(6-(tert-butylsulfonyl)-7-methoxyimidazo[1,2-a]pyridin-3-yl)-N-((5-fluoropyridin-2-yl)methyl)-1-methyl-1H-pyrazole-5-carboxamide], in that order: > 2500 nM, 100 to 1000 nM and ≥ 80%.
Take `CCn1nc(-c2cnc3cc(OC)c(S(=O)(=O)C(C)(C)C)cn23)cc1C(=O)N[C@H](C)c1ncccc1F` [Example 97, (R)-3-(6-(tert-butylsulfonyl)-7-methoxyimidazo[1,2-a]pyridin-3-yl)-1-ethyl-N-(1-(3-fluoropyridin-2-yl)ethyl)-1H-pyrazole-5-carboxamide]: the IC50 in test [1] was < 100 nM. Moreover, on RIPK2 (KD)/XIAP (BIR2), the Emax is ≥ 80% and the IC50 was < 10 nM.
Consider `COc1cc2ncc(-c3cc(C(=O)N[C@H](C)C4CC4)n(C)n3)n2cc1S(=O)(=O)C(C)(C)C` [Example 35, (R)-3-(6-(tert-butylsulfonyl)-7-methoxyimidazo[1,2-a]pyridin-3-yl)-N-(1-cyclopropylethyl)-1-methyl-1H-pyrazole-5-carboxamide], for which the IC50 in test [1] was > 2500 nM. On RIPK2 (KD)/XIAP (BIR2), the Emax was 30 to 55% and the IC50 was > 1000 nM.
As to `COc1cc2ncc(-c3cc(C(=O)NCc4cc(F)ccn4)n(C)n3)n2cc1S(=O)(=O)C(C)(C)C` [Example 53, 3-(6-(tert-butylsulfonyl)-7-methoxyimidazo[1,2-a]pyridin-3-yl)-N-((4-fluoropyridin-2-yl)methyl)-1-methyl-1H-pyrazole-5-carboxamide], the IC50 in test [1] was > 2500 nM. Moreover, at RIPK2 (KD)/XIAP (BIR2), the Emax was ≥ 80% and the half-inhibitory concentration (IC50) lay in the range of 100 to 1000 nM.
For `COc1cc2ncc(-c3cc(C(=O)NCc4[nH]ncc4C)n(C)n3)n2cc1S(=O)(=O)C(C)(C)C` [Example 43, 3-(6-(tert-butylsulfonyl)-7-methoxyimidazo[1,2-a]pyridin-3-yl)-1-methyl-N-((4-methyl-1H-pyrazol-5-yl)methyl)-1H-pyrazole-5-carboxamide], in that order: > 2500 nM, ≥ 80% and 100 to 1000 nM.
For `COCCn1nc(-c2cnc3cc(OCCO)c(S(=O)(=O)C(C)(C)C)cn23)cc1C(=O)N[C@H](C)c1ncccc1F` [Example 138, (R)-3-(6-(tert-butylsulfonyl)-7-(2-hydroxyethoxy)imidazo[1,2-a]pyridin-3-yl)-N-(1-(3-fluoropyridin-2-yl)ethyl)-1-(2-methoxyethyl)-1H-pyrazole-5-carboxamide], in that order: 100 to 500 nM, ≥ 80% and 10 to 100 nM.
In the case of `COc1cc2ncc(-c3cc(C(=O)NCc4cccnn4)n(C)n3)n2cc1S(=O)(=O)C(C)(C)C` [Example 69, 3-(6-(tert-butylsulfonyl)-7-methoxyimidazo[1,2-a]pyridin-3-yl)-1-methyl-N-(pyridazin-3-ylmethyl)-1H-pyrazole-5-carboxamide], the IC50 in test [1] is > 2500 nM. In addition, on RIPK2 (KD)/XIAP (BIR2), the Emax was ≤ 30% and the IC50 was > 1000 nM.
For `C[C@@H](NC(=O)c1cc(-c2cnc3cc(OCCO)c(S(=O)(=O)C(C)(C)C)cn23)nn1C)c1ncccc1F` [Example 110, (R)-3-(6-(tert-butylsulfonyl)-7-(2-hydroxyethoxy)imidazo[1,2-a]pyridin-3-yl)-N-(1-(3-fluoropyridin-2-yl)ethyl)-1-methyl-1H-pyrazole-5-carboxamide], in that order: < 100 nM, ≥ 80% and 10 to 100 nM.
Turning to `COc1cc2ncnc(-c3cc(C(=O)NCc4ccccc4)n(C)n3)c2cc1S(=O)(=O)C(C)(C)C` [Example 191, N-benzyl-3-(6-(tert-butylsulfonyl)-7-methoxyquinazolin-4-yl)-1-methyl-1H-pyrazole-5-carboxamide], the IC50 in test [1] is > 2500 nM. Also, at RIPK2 (KD)/XIAP (BIR2), the Emax is ≥ 80% and the IC50 was in the range of 100 to 1000 nM.
For the compound `CCn1nc(-c2cnc3cc(OC)c(S(=O)(=O)C(C)(C)C)cn23)cc1C(=O)NCc1ncccn1` [Example 80, 3-(6-(tert-butylsulfonyl)-7-methoxyimidazo[1,2-a]pyridin-3-yl)-1-ethyl-N-(pyrimidin-2-ylmethyl)-1H-pyrazole-5-carboxamide], the IC50 in test [1] was 100 to 500 nM. Moreover, at RIPK2 (KD)/XIAP (BIR2), the Emax was ≥ 80% and the IC50 was 10 to 100 nM.
Turning to `CCn1nc(-c2cnc3cc(OCCO)c(S(=O)(=O)C(C)(C)C)cn23)cc1C(=O)N[C@H](C)c1ccccn1` [Example 121, (R)-3-(6-(tert-butylsulfonyl)-7-(2-hydroxyethoxy)imidazo[1,2-a]pyridin-3-yl)-1-ethyl-N-(1-(pyridin-2-yl)ethyl)-1H-pyrazole-5-carboxamide], the IC50 in test [1] is < 100 nM. In addition, on RIPK2 (KD)/XIAP (BIR2), the Emax is ≥ 80% and the IC50 is < 10 nM.
As to `COc1cc2ncc(-c3cc(C(=O)NCc4ccncn4)n(C)n3)n2cc1S(=O)(=O)C(C)(C)C` [Example 68, 3-(6-(tert-butylsulfonyl)-7-methoxyimidazo[1,2-a]pyridin-3-yl)-1-methyl-N-(pyrimidin-4-ylmethyl)-1H-pyrazole-5-carboxamide], in test [1], the IC50 was > 2500 nM. In addition, on RIPK2 (KD)/XIAP (BIR2), the Emax was ≤ 30% and the IC50 is > 1000 nM.
For `COc1cc2ncc(-c3cc(C(=O)NCc4cc(C)n[nH]4)n(C)n3)n2cc1S(=O)(=O)C(C)(C)C` [Example 45, 3-(6-(tert-butylsulfonyl)-7-methoxyimidazo[1,2-a]pyridin-3-yl)-1-methyl-N-((3-methyl-1H-pyrazol-5-yl)methyl)-1H-pyrazole-5-carboxamide], in that order: > 2500 nM, ≥ 80% and 10 to 100 nM.
For `CNc1nccn2c(-c3cc(C(=O)NCc4ccccc4)n(C)n3)cnc12` [Example 189, N-benzyl-1-methyl-3-(8-(methylamino)imidazo[1,2-a]pyrazin-3-yl)-1H-pyrazole-5-carboxamide], in that order: > 2500 nM, 55 to 80% and > 1000 nM.
